The target in the test is T1, MycN protein (Homo sapiens, UniProt P04198).
T1 construct: either 2×10^6 of L-363 (human leukemia cell line) or SKNBE2 (neuroblastoma cell line) cells; endogenous in cells; host or cells: SKNBE2 / SK-N-BE(2) neuroblastoma cells
T1 sequence (P04198 1-464): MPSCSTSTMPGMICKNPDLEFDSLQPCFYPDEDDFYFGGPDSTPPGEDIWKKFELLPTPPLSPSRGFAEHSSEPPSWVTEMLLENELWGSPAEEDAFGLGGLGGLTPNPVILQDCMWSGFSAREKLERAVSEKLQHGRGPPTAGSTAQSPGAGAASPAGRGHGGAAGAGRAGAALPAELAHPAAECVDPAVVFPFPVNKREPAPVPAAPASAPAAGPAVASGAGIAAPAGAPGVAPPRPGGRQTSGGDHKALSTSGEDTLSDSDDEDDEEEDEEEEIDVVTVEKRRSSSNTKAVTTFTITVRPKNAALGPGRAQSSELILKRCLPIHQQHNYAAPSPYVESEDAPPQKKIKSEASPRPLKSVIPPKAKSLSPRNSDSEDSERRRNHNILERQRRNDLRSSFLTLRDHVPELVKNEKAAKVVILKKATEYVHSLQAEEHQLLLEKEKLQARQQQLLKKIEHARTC
Description: Degradation of MycN protein, Western blot, SKNBE2 cells (Example 160). Type of test: cell-based. As to the method: In a T150 flask was plated either 2×10^6 of L-363 (human leukemia cell line) or SKNBE2 (neuroblastoma cell line) cells in a total of 30 mL containing Roswell Park Memorial Institute (RPMI) 1640 Medium (Thermo Fisher, Cat. #11875-085), 10% Fetal Bovine Serum (FBS, Thermo Fisher: Cat. #10437-028), 1% Penicillin/streptomycin (Thermo Fisher: Cat. #10378016), and 1% Amophotericin B (Thermo Fisher, Cat. #15290026). The cells were split every 72 hours by reseeding the L-363 or SKNBE2 cells, and the passage number was noted. It is noteworthy that cell cultures that were above 40 passages were not used, and most experiments were done with cells of less than 30 passages.
In a 6-well cell culture plate, a total of 3 mL of either 1×10^6 cells/mL of L-363 or SKNBE2 cells were seeded, resulting in a total of 3×10^6 cells per well. To each well containing 3 mL of either L-363 or SKNBE2 cell line was added 6 uL of MycN modulating compound (1 mM) and the resulting plate was shaken from left to right, and not swirled. After 6 hours, the cells were placed in a 15 mL falcon tube and spun at 500 Gs at 4° C. in a swinging bucket centrifuge. The medium was then carefully removed without disturbing the pellet. The pellet was then washed with 3 mLs of chilled phosphate buffered saline (PBS) and subjected to the spin cycle. PBS was then removed and the pellet was lysed in 200 uL of radioimmunoprecipitation (RIPA) lysis buffer (Thermo Fisher: Cat. #899000) that is supplemented with protease and phosphatase inhibitors (Thermo Fisher: Cat. #A32959). The cell lysate was then subjected to spinning in a centrifuge for 10 minutes at 13000 G at 4° C. The supernatant was then carefully transferred to a fresh eppendorf tube without disturbing the pellet (˜180 uL). The protein concentration of the cell lysate was then determined by using a bicinchoninic acid (BCA assay) according to manufacturer's protocol (Thermo Fisher: Cat. #23227).
Cell lysate, approximately 25 ug-30 ug, was loaded per well in a 4-20% polyacrylamide gel (Biorad. Cat. #5671094). After running the dye front off of the gel, the gel was transferred to a nitrocellulose membrane (Biorad: Cat. #1704159) using the transblot turbo system (Biorad: Cat. #1704150) according to manufacturer's protocol. After transferring for 30 minutes, the membrane was blocked with 5% BSA for 1 hour at room temperature. The BSA was then washed off and the primary antibody of choice (1:500) was added, and the membrane was incubated with the primary antibody at 4° C. for overnight. The next morning, the primary antibody was removed and the membrane was washed with 1×-TBST for 10 minutes and repeated three more times. Following the last wash, a secondary antibody (Molecular Devices. Cat. #R8209 or R8208) was added at 1:5000 dilution and incubated for 1 hour at room temperature. Following the incubation with the secondary antibody, the membrane was washed with 1×-TBST for 10 minutes and repeated three more times. Following the last wash, the membrane was washed with de-ionized water twice and dried for at least two hours. Once the membrane is completely dry, the Molecular Devices Spectra Max western system was used to observe the bands. The western image was saved and the band density was measured with ImageJ software.

As for `CN(c1nccc(Nc2cc(C3CC3)[nH]n2)n1)[C@H]1CC[C@H](NC(=O)N2Cc3ccccc3C2)CC1` [Compound 11, N-((1R,4R)-4-((4-((5-cyclopropyl-1H-pyrazol-3-yl)amino)pyrimidin-2-yl)(methyl)amino)cyclohexyl)isoindoline-2-carboxamide], where the note is “SKNBE2, 6 h”, the inhibition (as a rule, the change of the read-out against control, counted positive when it falls) at 2 µM is 50 to 79%.
On the same count and under the same terms, under `CN(c1nccc(Nc2cc(C3CC3)[nH]n2)n1)[C@H]1CC[C@H](NC(=O)C2Cc3ccccc3C2)CC1` [Compound 101, N-((1R,4R)-4-((4-((5-cyclopropyl-1H-pyrazol-3-yl)amino)pyrimidin-2-yl)(methyl)amino)cyclohexyl)-2,3-dihydro-1H-indene-2-carboxamide] stands 50 to 79%.
Under “6 h”, `CN(c1nccc(Nc2cc(C3CCCC3)[nH]n2)n1)C1CCC(CC(=O)NC2Cc3ccc(C#N)cc3C2)CC1` (stereo not drawn) [Compound 102, N-(5-cyano-2,3-dihydro-1H-inden-2-yl)-2-(4-((4-((5-cyclopentyl-1H-pyrazol-3-yl)amino)pyrimidin-2-yl)(methyl)amino)cyclohexyl)acetamide] gave an inhibition at 2 µM of 80 to 100%.
Regarding `CN(c1nccc(Nc2cc(C3CCCC3)[nH]n2)n1)[C@H]1CC[C@H](NC(=O)Cc2cccc(C(F)(F)F)c2)CC1` [Compound 103, N-((1R,4R)-4-((4-((5-cyclopentyl-1H-pyrazol-3-yl)amino)pyrimidin-2-yl)(methyl)amino)cyclohexyl)-2-(3-(trifluoromethyl)phenyl)acetamide], the inhibition at 2 µM (SKNBE2, 6 h) is 50 to 79%.
Same read-out and setting: under `CN(c1nccc(Nc2cc(C3CC3)[nH]n2)n1)[C@H]1CC[C@H](NC(=O)Cc2cccc(C(F)(F)F)c2)CC1` [Compound 104, N-((1R,4R)-4-((4-((5-cyclopropyl-1H-pyrazol-3-yl)amino)pyrimidin-2-yl)(methyl)amino)cyclohexyl)-2-(3-(trifluoromethyl)phenyl)acetamide] stands 20 to 49%; under `CN(c1nccc(Nc2cc(C3CCCC3)[nH]n2)n1)[C@H]1CC[C@H](NC(=O)C2Cc3ccccc3C2)CC1` [Compound 105, N-((1R,4R)-4-((4-((5-cyclopentyl-1H-pyrazol-3-yl)amino)pyrimidin-2-yl)(methyl)amino)cyclohexyl)-2,3-dihydro-1H-indene-2-carboxamide], 50 to 79%; under `CN(c1nccc(Nc2cc(C3CCCC3)[nH]n2)n1)[C@H]1CC[C@H](NC(=O)CC2Cc3ccccc3C2)CC1` [Compound 106, N-((1R,4R)-4-((4-((5-cyclopentyl-1H-pyrazol-3-yl)amino)pyrimidin-2-yl)(methyl)amino)cyclohexyl)-2-(2,3-dihydro-1H-inden-2-yl)acetamide], 20 to 49%.
Where the note is “SKNBE2, 6 h”, `CN(c1nccc(Nc2cc(C3CC3)[nH]n2)n1)[C@H]1CC[C@H](NC(=O)c2cccc(C(F)(F)F)c2)CC1` [Compound 107, N-((1R,4R)-4-((4-((5-cyclopropyl-1H-pyrazol-3-yl)amino)pyrimidin-2-yl)(methyl)amino)cyclohexyl)-3-(trifluoromethyl)benzamide] registered an inhibition at 2 µM of 50 to 79%.
On the same count and under the same terms, under `CN(c1nccc(Nc2cc(C3CC3)[nH]n2)n1)[C@H]1CC[C@H](NC(=O)Cc2cccc(C#N)c2)CC1` [Compound 114, 2-(3-cyanophenyl)-N-((1R,4R)-4-((4-((5-cyclopropyl-1H-pyrazol-3-yl)amino)pyrimidin-2-yl)(methyl)amino)cyclohexyl)acetamide] stands 50 to 79%.

Source of the values: patent publication US20230322722A1, “MODULATORS OF MYC FAMILY PROTO-ONCOGENE PROTEIN” (Nalo Therapeutics, priority 2020, published 2023).
